# Experimental data from patent US9732059B2, “Methods of use of cyclic amide derivatives to treat schizophrenia” (Minerva Neurosciences, Inc., priority 2010, dated 2017).
# “Also recorded” adds a separate entry of the source.
# Assays:
# [1] = system: patients with DSM-IV schizophrenia; test: Phase 2 double-blind, randomized, placebo-controlled proof of concept study: efficacy scales (PANSS, CGI-S, DAI-10, PSQI, BACS, MADRS, HAMA); type: in vivo, human
# Method: A study was conducted using the compound of formula II, to examine the efficacy on schizophrenia and treatment of symptoms of schizophrenia. The study was a multi-center, inpatient and ambulatory, phase 2, double-blind, randomized, placebo-controlled proof of concept study of the compound of formula II in patients with DSM-IV schizophrenia. The study used 21 centers across three different countries.
# (§1) The study was designed to test the therapeutic efficacy of the compound of formula II on all dimensions of schizophrenic disease (E.g., positive, negative, and general symptoms, cognition, sleep, mood and anxiety). The study also examined the safety of the administered doses of the compound of formula II (also referred to herein as CYR-101), including heart repolarization (i.e., QT interval), weight change, adverse events, prolactin, and extrapyramidal symptoms).
# The study was conducted for a time period of three months.
# The objectives of the study included the following: • 1. Evaluate the efficacy versus placebo of CYR-101 on global PANSS score and sub-scores after one month (28 days+/− 2 days) of treatment • 2. […] Evaluate the efficacy versus placebo of CYR-101 as assessed by the CGI-S after one and three months of treatment • 4. Evaluate subjective efficacy in patients of CYR-101 versus placebo as assessed by the Drug Attitude Inventory-10 (DAI-10) after one and three months of treatment • 5. Evaluate subjective sleep quality as assessed by Pittsburgh Sleep Quality Index (PSQI) after three month of treatment • 6. Explore the efficacy versus placebo of CYR-101 on cognitive function as measured by BACS (Brief Assessment of Cognition in Schizophrenia) scale after one and three months of treatment • 7. Evaluate the efficacy versus placebo of CYR-101 in depressive symptoms as measure by the Montgomery-Asberg Depression Rating Scale (MADRS) total score after one month of treatment • 8. Evaluate the efficacy versus placebo of CYR-101 in anxiety as measured by the Hamilton Anxiety Scale (HAMA) total score after one month of treatment • 9. Assess cardio-vascular safety (particularly ventricular repolarisation as assessed by QT/QTc interval measurements) of CYR-101 compared with placebo • 10. Assess the global safety and tolerability of CYR-101 compared with placebo • 11. Determine the pharmacokinetics of CYR-101 in schizophrenic patients
# (§2) CYR-101 8 mg oral sustained release (SR) tablet, oral administration of 1, 2, or 4 tablets (8, 16 or 32 mg of CYR-101) was administered twice daily in fed condition. During the dose adjustment period, CYR-101 was administered orally, twice a day in the morning and in the evening, at the daily dose of 16 mg for two days, then titrated up every two days to 32 mg and 64 mg respectively. During the fixed-dose period, the optimal adjusted dose evaluated for each patient or the maximum daily dose of 64 mg of CYR-101 was administered. In one aspect of the study, the dosage of compound was titrated up to 32 mg b.i.d.
# During the lead-in period, oral administration of 1 placebo SR tablet was conducted twice a day for 3 days. During the dose adjustment and fixed-dose periods, oral administration of 1, 2, or 4 placebo SR tablets was used twice daily as performed for the test product.
# The resulting data was analyzed one of three ways: 1.) Safety set; 2.) Full analysis set, with each patient having at least one PANSS evaluation after treatment initiation included in the efficacy analysis. The LOCF method is used; and 3.) Per protocol set, where for certain analyses, all patients having completed three months of treatment are included. ANCOVA followed by a contrast analysis at each time point were applied and in some cases, a non-parametric Wilcoxon test was used.
# 1. Primary: PANSS total score and sub-scores, after one month of treatment
# 2. […]
# [2] = system: patients with DSM-IV schizophrenia; test: Phase 2 clinical study: safety (extrapyramidal symptoms, adverse events, QT interval); type: in vivo, human
# Method: as §1, §2
# 4. Safety: 12-lead ECG, adverse event (AE) recording, vital signs, physical examination, weight and waist circumference, safety lab tests, evaluation of extra-pyramidal symptoms (measured by Simpson and Angus scale), and prolactin levels.
# 3. Safety: Descriptive statistics on the safety set for extent of exposure, adverse events recording, safety lab tests, 12-lead ECG parameters, vital signs, and physical examination, weight and waist circumference, extra-pyramidal symptoms, prolactin levels.
# [3] = system: schizophrenic patients; test: Polysomnographic (PSG) sleep recording in a sub-group of patients; type: in vivo, human
# Source text: 3. Exploratory: In a sub-group of patients, polysomnographic sleep continuity and sleep architecture parameters.
# 2. Secondary efficacy variables: Same method for the PANSS total and sub-scores at three months of treatment, BACS, DAI-10, MADRS, HAMA, and PSQI on the Full Analysis Set (FAS). Last Observation Carried Forward (LOCF) procedure used for missing data imputation. Analysis of variance (ANOVA) for the Readiness for Discharge Questionnaire (RDQ) at 14 days. Wilcoxon rank sum test for CGI-S. Descriptive statistics and graphical presentation on changes from baseline on FAS. Efficacy analyses (ANCOVA) additionally performed on the Per Protocol Set. Supportive exploratory analysis on PANSS using longitudinal, likelihood-based, mixed-effect model on FAS without missing data imputation. On a subtest of patients, polysomnographic (PSG) recording parameters analyzed using descriptive statistics and ANCOVA on changes from baseline.
# Polysomnographic recordings took place in a sub-group of patients. Sleep was recorded from 11:00 pm to 7:00 am on D-1 after a habituation night (baseline condition) and on D14. Analyses regarding sleep continuity, stage distribution, and stage profile parameters were exploratory. The treatment differences on each of these sleep parameters were analyzed using D14 values with ANOVAs and ANCOVAs with country and treatment as main effects and baseline as covariate.
# Among the 33 patients who had performed a PSG recording at visit lead-in day-1, 19 received placebo and 14 received the study treatment. Among these, […] experienced technical problem and/or insomnia during baseline and/or treatment night and were therefore excluded from the analysis. Finally, 20 patients were included in the analysis set of ANOVA and 19 patients were included in the analysis set of ANCOVA, and according to the SAP, only ANCOVA results were taken into account and are further discussed in the next sections.
# [4] = target: sigma 2 receptor (Homo sapiens, UniProt Q5BJF2); conditions: cited from earlier work
# [5] = target: 5-HT2A (Homo sapiens, UniProt P28223); conditions: known: dual 5-HT2A/sigma 2; cited from earlier work
# [6] = system: dopamine; conditions: known; cited from earlier work
# [7] = D14, ANCOVA contrast, not statistically significant
# [8] = D14, ANCOVA, no significant treatment effect
# [9] = D14, not statistically significant
# Sequence of sigma 2 receptor (Q5BJF2 whole entry, species assumed): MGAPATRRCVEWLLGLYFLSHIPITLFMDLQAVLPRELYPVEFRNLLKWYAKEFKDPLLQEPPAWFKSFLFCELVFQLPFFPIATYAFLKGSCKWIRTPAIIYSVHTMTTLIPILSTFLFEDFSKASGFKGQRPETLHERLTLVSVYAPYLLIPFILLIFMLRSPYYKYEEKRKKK
# Sequence of 5-HT2A (P28223 whole entry, species assumed): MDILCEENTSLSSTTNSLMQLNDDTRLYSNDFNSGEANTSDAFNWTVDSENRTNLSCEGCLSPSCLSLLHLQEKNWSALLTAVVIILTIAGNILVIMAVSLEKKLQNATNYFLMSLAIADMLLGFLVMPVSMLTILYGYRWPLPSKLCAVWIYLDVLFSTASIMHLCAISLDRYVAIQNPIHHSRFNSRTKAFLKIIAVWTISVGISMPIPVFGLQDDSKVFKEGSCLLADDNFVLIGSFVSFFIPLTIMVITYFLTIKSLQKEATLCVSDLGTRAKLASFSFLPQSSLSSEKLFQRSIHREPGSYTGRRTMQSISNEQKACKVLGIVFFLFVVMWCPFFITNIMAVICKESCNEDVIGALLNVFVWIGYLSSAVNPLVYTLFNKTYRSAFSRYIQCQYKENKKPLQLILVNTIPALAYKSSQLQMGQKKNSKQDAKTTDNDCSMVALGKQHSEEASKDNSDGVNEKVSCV
smiles,measurement,setting,value
"O=C(CN1CCC(CN2Cc3ccccc3C2=O)CC1)c1ccc(F)cc1 [CYR-101, 2-[[1-[2-(4-Fluorophenyl)-2-oxoethyl]piperidin-4-yl]methyl]isoindolin-1-one]","PANSS general psychopathology sub-score, treatment difference vs placebo","[1]; D28, FAS",no treatment difference
same,"PANSS positive sub-score, treatment difference vs placebo","[1]; D28, FAS",no treatment difference
same,"PANSS total score, change from baseline, treatment difference vs placebo","[1]; D28, FAS",no treatment difference
same,PANSS negative sub-score decrease,"[1]; D28, FAS, p<0.01",−1.9
same,"PANSS general psychopathology sub-score, treatment difference vs placebo","[1]; D28, PPC",no treatment difference
same,"PANSS positive sub-score, treatment difference vs placebo","[1]; D28, PPC",no treatment difference
same,"PANSS total score, treatment difference vs placebo","[1]; D28, PPC",no treatment difference
same,PANSS negative sub-score decrease,"[1]; D28, PPC, p<0.0010",−4.7
same,"PANSS general psychopathology sub-score, treatment difference vs placebo","[1]; D84, FAS",no significant treatment difference
same,"PANSS positive sub-score, treatment difference vs placebo","[1]; D84, FAS",no significant treatment difference
same,"PANSS total score, change from baseline, treatment difference vs placebo","[1]; D84, FAS",no significant treatment difference
same,PANSS negative sub-score point estimate decrease,"[1]; D84, FAS, p<0.01",−2.3
same,PANSS total score vs placebo,"[1]; D84, PPC, obvious switch on D56",favorable trend of CYR-101 over placebo
same,PANSS negative sub-score improvement,"[1]; D84, PPC, p<0.001, treatment difference vs placebo p=0.0581",−5.8
same,PANSS positive sub-score vs placebo,"[1]; D84, PPC, switch between D56 and D70",favorable trend of CYR-101 over placebo
same,PANSS general psychopathology sub-score vs placebo,"[1]; D84, PPC, switch on D70",favorable trend of CYR-101 over placebo
same,Cognitive performances assessed by BACS vs placebo,[1]; FAS,"no differences between the placebo group and the CYR-101 group, except for the Token motor task"
same,"MADRS Total change score, difference vs placebo","[1]; FAS and PPC, D28 and D84, reduction in both groups",not statistically significant
same,"CGI-S score, difference between CYR-101 and placebo","[1]; FAS, D28 and D84",no significant difference
same,HAMA total score change from baseline,"[1]; FAS, D28 and D84, non statistically significant",slight HAMA total score reduction
same,HAMA total score reduction,"[1]; PPC, D28, p=0.2920",−1.0
same,"BACS Token motor task, list learning task, verbal fluency vs placebo","[1]; PPC, D84, descriptive data, not statistically significant",slight difference in favor of CYR-101 group; also recorded: slight difference in favour of CYR-101 group
same,HAMA total score reduction,"[1]; PPC, D84, p=0.0642",−2.9
same,CGI-S mean difference score,"[1]; PPC, from D56 until D84",non significant but an interesting switch in favor of CYR-101
same,"Improvement of negative symptoms, onset",[1]; course of treatment,observed immediately
same,"Improvement of positive symptoms, onset",[1]; course of treatment,did not improve until after the first four weeks of treatment
same,Duration of improvement in both positive and negative symptoms,[1]; in vivo,continued for more than twelve weeks
same,Effect on cognition in schizophrenic patients,[1]; in vivo,positive effect on cognition
same,"DAI-10 total score change from baseline, difference between groups","[1]; to D28 and D84, FAS and PPC",no statistically significant difference
same,Increase in the QT interval,"[2]; doses up to 32 mg b.i.d., stable over time, limits e.g. 10-15 milliseconds or less",did not cross clinically acceptable limits
same,"Emergence or worsening of extrapyramidal symptoms, CYR-101 vs placebo","[2]; human, in vivo",no significant difference
same,Number of SAE in the active treatment group,[2]; unlikely related to CYR-101 based on the patient history,one
same,Decrease of sleep efficiency index (SEI) compared to placebo,[3]; [7],2.4%
same,Decrease of total sleep time (TST) compared to placebo,[3]; [7],13.7 min
same,Increase of duration of wake after sleep onset (WASO) compared to placebo,[3]; [7],26.6 min
same,Latency to persistent sleep,[3]; [8],trend of improvement
same,Sleep onset latency,[3]; [8],trend of improvement
same,REM sleep latency contrast,"[3]; D14, non significant",appeared later
same,SWS latency contrast,"[3]; D14, non significant",appeared sooner
same,Decrease of REM sleep in SPT2 and in SPT3,[3]; [9],3.03%
same,Increase of REM sleep in the first third of SPT (REM_SPT1),[3]; [9],1.4%
same,Slow Wave Sleep (SWS) compared to placebo,[3]; [9],increased
same,Stage 1 (ST1) compared to placebo,[3]; [9],decreased
same,Stage 2 (ST2 in min) compared to placebo,[3]; [9],decreased
same,Total Time Awake (TTA) compared to placebo,[3]; [9],increased
same,nonREM sleep (NREM) compared to placebo,[3]; [9],increased
same,Decrease of SWS during the last third of SPT (SWS-SPT3) compared to placebo,"[3]; D14, p<0.05",22.1%
same,Increase of SWS in the first third of SPT (SWS-SPT1) compared to placebo,"[3]; D14, p<0.05",23.6%
same,REM sleep (REM) compared to placebo,"[3]; D14, significant only for REM-TST (p<0.05)",decreased
same,Receptor binding selectivity,[4],sigma 2-selective receptor binding
same,Mode of action at 5-HT2A,[5],antagonist
same,Dopamine binding properties,[6],devoid of dopamine binding properties
